| SMILES | melting point [°C] | boiling point [°C] | also measured |
| --- | --- | --- | --- |
| CCCCCC=CC=CC(=O)O | 49.5 |  |  |
| NCCNCCNCCN | 12 | 266 | ready biodegradability: not readily biodegradable |
| Cc1cc(Cl)nn1C | 47.5 | 211 |  |
| CS(C)=O | 18.5 | 189 | log10 Henry constant (atm·m³/mol): -8.82; log10 Koa: 4.96; log10 vapour pressure (mmHg): -0.215; ready biodegradability: not readily biodegradable; log10 BCF (fish): 0.6 |
| ClCCCBr | -58.9 | 143 | log10 vapour pressure (mmHg): 0.806; ready biodegradability: not readily biodegradable |
| FC(F)=C(F)OC(F)(F)C(F)(F)C(F)(F)F |  |  | ready biodegradability: not readily biodegradable |
| CC(O)c1ccccc1 (stereo unspecified) | 15 | 205 | log10 Koc (L/kg): 1.5; ready biodegradability: readily biodegradable |
| FC(F)(F)CCCl | -106 | 45.1 |  |
| BrCc1ccc(Br)cc1 | 63 |  |  |
| CN(C)CCCN(C)C |  | 144 |  |
| Cc1ccc(C(=O)c2ccc(C)cc2)cc1 | 96.5 | 334 |  |
| O=[N+]([O-])c1ccccc1Br | 43 | 258 |  |
| O=S1OCCO1 | -11 | 173 |  |
| CC[C@@H](CO)NC(=O)[C@@H]1C=C2c3cccc4c3c(cn4C)C[C@H]2N(C)C1 | 195 |  |  |
| CCCCC(=O)c1ccc(N)cc1 | 74.5 |  |  |
| CCCC(=O)C(=O)O | 6.5 | 179 |  |
| Cc1cc(-c2cc(C)c(OCC3CO3)c(C)c2)cc(C)c1OCC1CO1 (stereo unspecified) |  |  | ready biodegradability: not readily biodegradable |
| CC1(O)CCCCC1 | 25 | 155 | log10 vapour pressure (mmHg): 0.0531 |
| COCCCCl |  | 111 |  |
| O=C(O)CCCCCCCF | 35 |  |  |
| Nc1ccc(C2(c3ccc(N)cc3)OC(=O)c3ccccc32)cc1 | 203 |  |  |
| COC(=O)c1cccc2ccccc12 | 59.5 |  |  |

| SMILES | melting point [°C] | boiling point [°C] | also measured |
| --- | --- | --- | --- |
| CCCCCCCCOC(=O)CCCCCCCCC(=O)OCCCCCCCC |  |  | ready biodegradability: readily biodegradable |
| S=C(SN1CCOCC1)N1CCOCC1 | 139 |  |  |
| O=C(CCCN1CCC(O)(c2ccc(Br)cc2)CC1)c1ccc(F)cc1 | 155 |  |  |
| CC1(C)C=Cc2c(ccc3c2OC2c4ccc(O)cc4OCC32)O1 (stereo unspecified) | 178 |  |  |
| NS(=O)(=O)c1ccc(S(=O)(=O)CCCCO)cc1 | 134 |  |  |
| COc1cc(NS(=O)(=O)c2ccc(N)cc2)nc(C)n1 | 146 |  |  |
| CC(C)CCCCCO | -106 | 188 |  |
| CCCCC(=O)O[C@]1(C(=O)CO)[C@@H](C)C[C@H]2[C@@H]3CCC4=CC(=O)C=C[C@]4(C)[C@@]3(F)[C@@H](O)C[C@@]21C | 184 |  |  |
| CC(Br)C(Br)C(=O)O (stereo unspecified) | 87 |  |  |
| C[C@]12CC[C@@H](O)C[C@@H]1CC[C@@H]1[C@@H]2CC[C@]2(C)C=CC[C@@H]12 | 143 |  |  |
| FC(F)(F)c1ccc(Br)cc1 |  | 160 |  |
| C=Cc1ccccc1Cl | -63.1 | 189 | log10 vapour pressure (mmHg): -0.0173; ready biodegradability: not readily biodegradable |
| O=[N+]([O-])c1ccc(-c2ccc([N+](=O)[O-])cc2)cc1 |  |  | log10 vapour pressure (mmHg): -7.56 |
| NC(=O)CI | 94.5 |  | ready biodegradability: not readily biodegradable |
| C#CCOc1ccc(N)cc1C(=O)NCCCC | 84 |  |  |
| COC(=O)CCCBr |  | 186 |  |
| CCC#N | -92.8 | 97.1 | log10 Henry constant (atm·m³/mol): -4.43; log10 Koa: 2.69; log10 vapour pressure (mmHg): 1.68 |
| C=CCOCC |  | 67.6 | log10 vapour pressure (mmHg): 2.18 |
| CC(=O)c1ccc2ccccc2c1 | 56 | 302 | log10 Koc (L/kg): 2.93; log10 vapour pressure (mmHg): -3.21 |
| CCCCC(C)(CC)CC |  | 164 |  |
| Clc1cccc2c1Oc1c(Cl)c(Cl)c(Cl)c(Cl)c1O2 | 220 |  | log10 vapour pressure (mmHg): -9.25 |
| O=C(O)CNC(=O)OCc1ccccc1 | 121 |  |  |

| SMILES | melting point [°C] | boiling point [°C] | also measured |
| --- | --- | --- | --- |
| CC1CCC(=O)N1C (stereo unspecified) |  | 217 |  |
| O=C(O)[C@@H](S)[C@@H](S)C(=O)O | 193 |  |  |
| C=COCCC(C)C |  | 112 |  |
| Cc1cc2nc[nH]c2cc1C | 206 |  |  |
| CC1=C[C@@H](O)[C@@H]2C[C@H]1C2(C)C (racemic) | 65 |  |  |
| CN(C)C(=O)CCCOC(=O)c1ccccc1 | 40.5 |  |  |
| CCC(C)CCC(C)O (stereo unspecified) | -61 | 170 |  |
| BrC(c1ccccc1)(c1ccccc1)c1ccccc1 | 153 |  |  |
| CC(C)(C(N)=O)n1nc2ccccc2n1 | 174 |  |  |
| C=CCC(C(=O)OCC)C(=O)OCC |  | 222 |  |
| OCCCCCCCCCCCl | 12.5 |  |  |
| c1ccc2c(c1)cnc1ccccc12 | 107 | 349 | log10 vapour pressure (mmHg): -4.68 |
| C=CCc1cc2c(c(OC)c1OC)OCO2 | 29.5 | 285 |  |
| CC(C)NNC(=O)COc1ccc(Cl)cc1 | 93.5 |  |  |
| CCCCCCCC(=O)CC | 2.5 | 203 |  |
| CC(C)CC(=O)c1ccccc1 |  | 236 |  |
| CN(C)c1ccc(C=O)cc1 | 74.5 |  | log10 vapour pressure (mmHg): -2.43 |
| CCCN(CCC)CCC | -93.5 | 156 | log10 vapour pressure (mmHg): 0.179 |
| FC(F)(F)C(F)(F)C(Cl)Cl | -94 | 51.1 | log10 Henry constant (atm·m³/mol): -0.299; log10 vapour pressure (mmHg): 2.38 |
| OCC1(CO)CC=CCC1 | 88.5 |  |  |

Reference: the OPERA property sets (Mansouri et al. 2018)
